Laboratory results as given in PubChem BioAssay AID248 (DTP/NCI, 2004).
Several values for one entry are separate records, joined by “and”; a condition that tells them apart may be missing. Equal values may be shown once. Toxic doses and inconclusive results are not listed. No stated cut-off is given here; in the data, active means T/C of 150% or more; inactive means T/C below 125%.

Test system: L1210 leukemia ip in BDF1 mice, survival T/C
Assay: NCI In Vivo Anticancer Drug Screen. Data for tumor model L1210 Leukemia (intraperitoneal) in B6D2F1 (BDF1) mice
Conditions: endpoint: mean survival time, higher = longer survival
Procedure, shortened: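 Antitumor effect is assessed in tumor-bearing animals. Survival in the compound arm is compared with a vehicle-dosed control arm and expressed as their quotient.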

[1] = dose: 50.0 mg/kg/injection, schedule: Q01DX009 (ip), vehicle: saline with Tween-80
[2] = dose: 100.0 mg/kg/injection, schedule: Q04DX003 (ip), vehicle: saline with Tween-80
[3] = dose: 200.0 mg/kg/injection, schedule: Q04DX003 (ip), vehicle: saline with Tween-80
[4] = dose: 400.0 mg/kg/injection, schedule: Q01DX009 (ip), vehicle: saline with Tween-80
[5] = dose: 400.0 mg/kg/injection, schedule: Q04DX003 (ip), vehicle: saline with Tween-80
[6] = dose: 100.0 mg/kg/injection, schedule: Q01DX009 (ip), vehicle: saline sonified
[7] = dose: 200.0 mg/kg/injection, schedule: Q01DX009 (ip), vehicle: saline sonified
[8] = dose: 25.0 mg/kg/injection, schedule: Q01DX009 (ip), vehicle: saline with Tween-80
[9] = dose: 100.0 mg/kg/injection, schedule: Q01DX009 (ip), vehicle: saline with Tween-80
[10] = dose: 100.0 mg/kg/injection, schedule: Q01DX009 (ip), vehicle: Klucel (hydroxypropylcellulose) (HPC)
[11] = dose: 100.0 mg/kg/injection, schedule: Q04DX003 (ip), vehicle: Klucel (hydroxypropylcellulose) (HPC)
[12] = dose: 200.0 mg/kg/injection, schedule: Q01DX009 (ip), vehicle: Klucel (hydroxypropylcellulose) (HPC)
[13] = dose: 200.0 mg/kg/injection, schedule: Q04DX003 (ip), vehicle: Klucel (hydroxypropylcellulose) (HPC)
[14] = dose: 400.0 mg/kg/injection, schedule: Q01DX009 (ip), vehicle: Klucel (hydroxypropylcellulose) (HPC)
[15] = dose: 400.0 mg/kg/injection, schedule: Q04DX003 (ip), vehicle: Klucel (hydroxypropylcellulose) (HPC)
[16] = dose: 200.0 mg/kg/injection, schedule: Q01DX009 (ip), vehicle: saline with Tween-80
[17] = dose: 100.0 mg/kg/injection, schedule: Q04DX002 (ip), vehicle: Klucel (hydroxypropylcellulose) (HPC)
[18] = dose: 200.0 mg/kg/injection, schedule: Q04DX002 (ip), vehicle: Klucel (hydroxypropylcellulose) (HPC)

Measured: T/C

O=C(/C=C/c1ccccc1)NC(=S)Nc1ccc(CCO)cc1
inactive: [1] 97 % of control and 111 % of control | dose: 100.0 mg/kg/injection, schedule: Q01DX001 (ip), vehicle: saline with Tween-80 100 % of control | dose: 100.0 mg/kg/injection, schedule: Q04DX002 (ip), vehicle: saline with Tween-80 96 % of control and 97 % of control | [2] 102 % of control | dose: 200.0 mg/kg/injection, schedule: Q01DX001 (ip), vehicle: saline with Tween-80 88 % of control | dose: 200.0 mg/kg/injection, schedule: Q04DX002 (ip), vehicle: saline with Tween-80 96 % of control and 101 % of control | [3] 100 % of control | dose: 400.0 mg/kg/injection, schedule: Q01DX001 (ip), vehicle: saline with Tween-80 90 % of control | [4] 93 % of control and 95 % of control | dose: 400.0 mg/kg/injection, schedule: Q04DX002 (ip), vehicle: saline with Tween-80 104 % of control | [5] 87 % of control

O=C(c1ccccc1)C1(Br)CCC1
inactive: [6] 101 % of control | [7] 97 % of control | dose: 400.0 mg/kg/injection, schedule: Q01DX009 (ip), vehicle: saline sonified 101 % of control

Nc1cc(=O)[nH]c(=S)n1-c1ccc(Br)cn1
inactive: [2] 98 % of control | [3] 86 % of control | [5] 104 % of control

Nc1nc(NCCCc2ccccc2)c(N)c(=O)[nH]1
inactive: [8] 94 % of control | [1] 92 % of control | [9] 92 % of control and 97 % of control

CNC(=O)OCC(Cl)(Cl)Cl
inactive: [10] 97 % of control | [11] 96 % of control | [12] 98 % of control | [13] 100 % of control | [14] 95 % of control | [15] 100 % of control

CCCCC/C(C=O)=C\c1ccccc1
inactive: [9] 104 % of control | [2] 94 % of control | [16] 91 % of control | [3] 96 % of control | [4] 93 % of control | [5] 105 % of control

Cc1cc(N)c(C)c2ccncc12
inactive: dose: 5.0 mg/kg/injection, schedule: Q01DX001 (ip), vehicle: saline 103 % of control

OC(CC(O)(C(F)(F)F)C(F)(F)F)c1cccc(Cl)c1 (centres undefined)
inactive: dose: 50.0 mg/kg/injection, schedule: Q01DX009 (ip), vehicle: gum acacia 96 % of control | dose: 100.0 mg/kg/injection, schedule: Q01DX009 (ip), vehicle: gum acacia 94 % of control | dose: 100.0 mg/kg/injection, schedule: Q04DX003 (ip), vehicle: gum acacia 104 % of control | dose: 200.0 mg/kg/injection, schedule: Q04DX003 (ip), vehicle: gum acacia 95 % of control

COc1ccc(C(=O)Nc2cccc3ccccc23)cc1
inactive: dose: 100.0 mg/kg/injection, schedule: Q01DX009 (ip), vehicle: carboxymethylcellulose (CMC) 95 % of control | [17] 108 % of control | dose: 100.0 mg/kg/injection, schedule: Q04DX002 (ip), vehicle: carboxymethylcellulose (CMC) 93 % of control and 97 % of control | dose: 100.0 mg/kg/injection, schedule: Q04DX003 (ip), vehicle: carboxymethylcellulose (CMC) 103 % of control | dose: 200.0 mg/kg/injection, schedule: Q01DX009 (ip), vehicle: carboxymethylcellulose (CMC) 98 % of control and 90 % of control | [18] 102 % of control | dose: 200.0 mg/kg/injection, schedule: Q04DX002 (ip), vehicle: carboxymethylcellulose (CMC) 95 % of control and 103 % of control | dose: 200.0 mg/kg/injection, schedule: Q04DX003 (ip), vehicle: carboxymethylcellulose (CMC) 103 % of control | dose: 400.0 mg/kg/injection, schedule: Q01DX009 (ip), vehicle: carboxymethylcellulose (CMC) 93 % of control and 87 % of control | dose: 400.0 mg/kg/injection, schedule: Q04DX002 (ip), vehicle: Klucel (hydroxypropylcellulose) (HPC) 112 % of control | dose: 400.0 mg/kg/injection, schedule: Q04DX002 (ip), vehicle: carboxymethylcellulose (CMC) 100 % of control and 101 % of control | dose: 400.0 mg/kg/injection, schedule: Q04DX003 (ip), vehicle: carboxymethylcellulose (CMC) 97 % of control

O=C(O)/C(=C\c1ccccc1)c1ccccc1
inactive: [2] 100 % of control | [3] 94 % of control | [5] 100 % of control

OC(c1ccccc1)(c1ccccc1)C1CCCCC1=C(c1ccccc1)c1ccccc1 (centres undefined)
inactive: dose: 100.0 mg/kg/injection, schedule: Q01DX001 (ip), vehicle: saline 88 % of control | dose: 100.0 mg/kg/injection, schedule: Q01DX009 (ip), vehicle: saline 86 % of control | dose: 100.0 mg/kg/injection, schedule: Q04DX003 (ip), vehicle: saline 96 % of control | dose: 200.0 mg/kg/injection, schedule: Q01DX001 (ip), vehicle: saline 93 % of control | dose: 200.0 mg/kg/injection, schedule: Q04DX003 (ip), vehicle: saline 94 % of control | dose: 400.0 mg/kg/injection, schedule: Q01DX001 (ip), vehicle: saline 89 % of control | dose: 400.0 mg/kg/injection, schedule: Q01DX009 (ip), vehicle: saline 86 % of control | dose: 400.0 mg/kg/injection, schedule: Q04DX003 (ip), vehicle: saline 96 % of control

Cc1ccc(CN=C(N)CSS(=O)(=O)O)cc1C
inactive: [17] 97 % of control | [18] 101 % of control

Cc1cc(C)c(N(CC(=O)O)S(=O)(=O)c2ccccc2)c(C)c1Cl
inactive: dose: 50.0 mg/kg/injection, schedule: Q01DX001 (ip), vehicle: Klucel (hydroxypropylcellulose) (HPC) 100 % of control | dose: 100.0 mg/kg/injection, schedule: Q01DX001 (ip), vehicle: Klucel (hydroxypropylcellulose) (HPC) 86 % of control | dose: 200.0 mg/kg/injection, schedule: Q01DX001 (ip), vehicle: Klucel (hydroxypropylcellulose) (HPC) 91 % of control

O=C1OCC/C1=C/CCC/C=C1\CCOC1=O
inactive: [10] 101 % of control | [11] 100 % of control | [12] 102 % of control | [13] 94 % of control | [14] 88 % of control | [15] 92 % of control

CCOC(=O)Nc1cc(NC(=O)OCC)cc([N+](=O)[O-])c1
inactive: [2] 110 % of control | [3] 102 % of control | [5] 89 % of control

CC1=CC(=O)[C@@H](O)[C@]2(C)[C@H]3[C@@]4(O)OC[C@]35[C@H]([C@@H](C)[C@H]4O)[C@@H](O)C(=O)O[C@@H]5C[C@@H]12
inactive: dose: 2.5 mg/kg/injection, schedule: Q01DX009 (ip), vehicle: saline 107 % of control | dose: 5.0 mg/kg/injection, schedule: Q01DX009 (ip), vehicle: saline 96 % of control | dose: 10.0 mg/kg/injection, schedule: Q01DX009 (ip), vehicle: saline 102 % of control | dose: 20.0 mg/kg/injection, schedule: Q01DX009 (ip), vehicle: saline 100 % of control

O=C1N(Cl)C(=O)C(c2ccc(Cl)cc2)(c2ccc(Cl)cc2)N1Cl
inactive: dose: 12.5 mg/kg/injection, schedule: Q01DX009 (ip), vehicle: saline with Tween-80 98 % of control | dose: 25.0 mg/kg/injection, schedule: Q01DX009 (ip), vehicle: Klucel (hydroxypropylcellulose) (HPC) 106 % of control | [8] 96 % of control | dose: 25.0 mg/kg/injection, schedule: Q04DX003 (ip), vehicle: Klucel (hydroxypropylcellulose) (HPC) 113 % of control | dose: 50.0 mg/kg/injection, schedule: Q01DX001 (ip), vehicle: carboxymethylcellulose (CMC) 101 % of control | dose: 50.0 mg/kg/injection, schedule: Q01DX009 (ip), vehicle: Klucel (hydroxypropylcellulose) (HPC) 106 % of control | [1] 102 % of control | dose: 50.0 mg/kg/injection, schedule: Q04DX003 (ip), vehicle: Klucel (hydroxypropylcellulose) (HPC) 106 % of control | dose: 100.0 mg/kg/injection, schedule: Q01DX001 (ip), vehicle: carboxymethylcellulose (CMC) 108 % of control | [10] 98 % of control | [6] 122 % of control | [9] 106 % of control | [11] 108 % of control | dose: 200.0 mg/kg/injection, schedule: Q01DX001 (ip), vehicle: carboxymethylcellulose (CMC) 102 % of control | [7] 93 % of control | [16] 106 % of control | dose: 400.0 mg/kg/injection, schedule: Q01DX001 (ip), vehicle: carboxymethylcellulose (CMC) 103 % of control

Cc1nccnc1SC1CCCCC1
inactive: [11] 96 % of control | [13] 96 % of control | [15] 93 % of control
